Laboratory results published in ChEMBL document CHEMBL1201862, “PubChem BioAssay data set” (2004).
Calls of active or inactive are those of the source.

Assays:
[1] = target: T1, Apoptotic protease-activating factor 1 (Homo sapiens, UniProt O14727); type: functional
T1 sequence (O14727 whole entry): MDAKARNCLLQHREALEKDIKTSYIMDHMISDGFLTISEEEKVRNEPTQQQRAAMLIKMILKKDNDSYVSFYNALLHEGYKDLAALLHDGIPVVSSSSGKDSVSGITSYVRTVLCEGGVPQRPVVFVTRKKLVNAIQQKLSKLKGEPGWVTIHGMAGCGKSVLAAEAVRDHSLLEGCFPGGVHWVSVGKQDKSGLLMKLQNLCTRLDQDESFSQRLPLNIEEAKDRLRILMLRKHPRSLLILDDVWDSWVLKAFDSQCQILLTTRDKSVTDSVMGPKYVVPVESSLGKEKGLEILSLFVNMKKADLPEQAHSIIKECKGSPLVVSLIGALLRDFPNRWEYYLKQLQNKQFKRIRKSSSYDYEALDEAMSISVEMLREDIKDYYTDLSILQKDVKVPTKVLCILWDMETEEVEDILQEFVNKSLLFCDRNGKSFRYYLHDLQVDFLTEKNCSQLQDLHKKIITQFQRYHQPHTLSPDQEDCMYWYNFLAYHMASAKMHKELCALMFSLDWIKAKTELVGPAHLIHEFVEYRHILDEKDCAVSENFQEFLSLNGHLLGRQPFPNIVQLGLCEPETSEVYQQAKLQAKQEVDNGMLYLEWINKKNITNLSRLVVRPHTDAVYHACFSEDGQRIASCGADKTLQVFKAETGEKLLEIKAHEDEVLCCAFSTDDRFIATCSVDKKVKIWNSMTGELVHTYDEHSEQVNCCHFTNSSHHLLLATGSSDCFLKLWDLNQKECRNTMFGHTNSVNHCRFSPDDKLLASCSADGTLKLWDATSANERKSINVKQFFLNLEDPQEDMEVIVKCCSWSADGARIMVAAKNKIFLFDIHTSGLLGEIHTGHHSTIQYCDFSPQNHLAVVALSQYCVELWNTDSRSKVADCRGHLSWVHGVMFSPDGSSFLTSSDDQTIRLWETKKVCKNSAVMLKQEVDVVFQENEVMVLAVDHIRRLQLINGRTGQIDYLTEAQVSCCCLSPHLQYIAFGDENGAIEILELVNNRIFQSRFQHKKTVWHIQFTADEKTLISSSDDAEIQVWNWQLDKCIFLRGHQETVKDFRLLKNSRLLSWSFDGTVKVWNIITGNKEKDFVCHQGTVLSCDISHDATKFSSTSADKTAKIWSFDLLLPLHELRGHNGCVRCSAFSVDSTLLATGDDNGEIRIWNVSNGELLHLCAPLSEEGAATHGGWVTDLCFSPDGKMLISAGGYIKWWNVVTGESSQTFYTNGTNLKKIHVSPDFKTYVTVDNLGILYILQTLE

Streptococcus = test: GAS UMAA2166 growth inhibition – luminescence, BacTiterGlo, counter-screen for streptokinase expression inhibitor project, dose response (AID 1915); type: functional, organism-based;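 further: potency for reduction of bacterial viability or growth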
[2] = off-target signal loss in HeLa-CEM21 co-culture – HeLa F-luc CTL cells, cherry-picked, counter-screen for HIV-1 Env fusion inhibitor project, dose response (AID 652040); type: functional, cell-based;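 further: potency for signal decrease marking cytotoxic or nonspecific inhibition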
[3] = system: Streptococcus sp. 'group A'; test: Streptococcus pyogenes SK(-)GAS viability under kanamycin – luminescence, BacTiterGlo, confirmation, counter-screen for streptokinase expression inhibitor project, dose response (AID 1900); type: functional, organism-based
INS1 = test: INS-1E survival protection against cytokine death – cell-based, luminescence, retest, dose response (AID 449756); type: functional; details: Rattus norvegicus;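 further: cell death triggered by IL-1 beta plus TNF-alpha plus IFN-gamma mixture; protective hits raise ATP signal compared with cytokine alone wells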
[4] = HEK-293T viability loss, compound-treated – cell-based, uHTS hits, cytotoxicity control for B/T-cell NF-kB inhibitor project, dose response (AID 489019); type: functional;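 further: IC50 reflects cytotoxicity as loss of cell viability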
[5] = target: T2, Ubiquitin-conjugating enzyme E2 N (Homo sapiens, UniProt P61088); type: functional
T2 sequence (P61088 whole entry): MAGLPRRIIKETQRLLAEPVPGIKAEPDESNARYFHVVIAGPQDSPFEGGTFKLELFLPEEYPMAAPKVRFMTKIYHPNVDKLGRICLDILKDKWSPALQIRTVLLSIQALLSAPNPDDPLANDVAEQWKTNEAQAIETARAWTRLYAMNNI

[6] = HIV-1 AD8 envelope cell-cell fusion blockers – cherry-pick, dose response (AID 652062); type: functional, cell-based;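 further: luciferase signal from cell-cell fusion driven by HIV-1 clade B AD8 Env; potency is for inhibitors of fusion seen as a drop in luminescence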
Bcl-2-related protein A1 = target: T3, Bcl-2-related protein A1 (Mus musculus, UniProt Q07440); type: functional;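 further: confirmatory dose–response counterscreen on Bfl-1, used to check hits from a UBC13 polyubiquitin inhibitor campaign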
T3 sequence (Q07440 whole entry): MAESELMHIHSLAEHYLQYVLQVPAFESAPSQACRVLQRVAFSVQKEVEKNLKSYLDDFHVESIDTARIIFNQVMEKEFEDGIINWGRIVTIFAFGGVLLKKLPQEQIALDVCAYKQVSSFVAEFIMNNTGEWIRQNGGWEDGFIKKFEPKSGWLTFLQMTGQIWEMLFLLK

[7] = target: Intestinal-type alkaline phosphatase (Homo sapiens, UniProt P09923); test: inhibition of human intestinal alkaline phosphatase – biochemical, dose response (AID 488876); type: functional
ORF 73 = ORF 73 (Human herpesvirus 8, UniProt O40947); test: KSHV LANA DNA-binding disruption – biochemical, fluorescence polarization, cherry-picked samples, dose response (AID 504725); set-up: species or system Human gammaherpesvirus 8;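 further: fluorescence polarization of a labeled DNA duplex reporting LANA DNA binding; potency is for inhibitors that block LANA binding to the DNA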
Troponin, cardiac muscle = Troponin, cardiac muscle (Homo sapiens, UniProt P19429+P45379+P63316); test: compounds desensitizing RTF to calcium – biochemical, fluorescence, cardiac regulated thin filaments, triplicate IC50, dose response (AID 504742); type: protein-complex assay
Caspase-9 = Caspase-9 (Homo sapiens, UniProt P55211); test: inhibitors of purified CASP9 protease – biochemical, fluorescence, plate reader, cherry-picked samples, selectivity assay for caspase-6 inhibitor project, dose response (AID 743293)
HeLa = test: viability loss in HeLa cells – cell-based, 24 h, cherry-picked samples, cytotoxicity control, dose response (AID 504726); type: functional; details: Homo sapiens;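 further: potency for cytotoxicity as loss of luminescence signal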
Genome polyprotein = Genome polyprotein (dengue virus type 2, UniProt P29990); test: flavivirus cap methylation enzyme inhibition – biochemical, confirmation dose response, primary screen (AID 588689); type: functional
[8] = target: 1-phosphatidylinositol 4,5-bisphosphate phosphodiesterase gamma-1 (Homo sapiens, UniProt P19174); test: Counterscreen for inhibitors of phospholipase C isozymes (PLC-B3): Fluorescence-based biochemical high throughput dose response assay to identify inhibitors of phospholipase C isozymes (PLC-gamma1).
Caspase-8 = Caspase-8 (Homo sapiens, UniProt Q14790); test: inhibitors of purified CASP8 protease – biochemical, Z-IETD-R110 fluorescence, cherry-picked samples, selectivity assay for caspase-6 inhibitor project, dose response (AID 743294)
Caspase-8, sequence (Q14790 217-374 limits assumed): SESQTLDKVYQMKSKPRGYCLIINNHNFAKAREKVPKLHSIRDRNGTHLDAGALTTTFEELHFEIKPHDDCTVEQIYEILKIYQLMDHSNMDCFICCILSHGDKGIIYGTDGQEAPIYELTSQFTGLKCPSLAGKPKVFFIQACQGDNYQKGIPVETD
Caspase-8, sequence (Q14790 385-479 limits assumed): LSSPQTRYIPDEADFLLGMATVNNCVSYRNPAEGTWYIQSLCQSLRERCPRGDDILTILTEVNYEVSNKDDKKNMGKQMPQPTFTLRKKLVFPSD

Genome polyprotein, sequence (P29990 2492-3391 limits assumed): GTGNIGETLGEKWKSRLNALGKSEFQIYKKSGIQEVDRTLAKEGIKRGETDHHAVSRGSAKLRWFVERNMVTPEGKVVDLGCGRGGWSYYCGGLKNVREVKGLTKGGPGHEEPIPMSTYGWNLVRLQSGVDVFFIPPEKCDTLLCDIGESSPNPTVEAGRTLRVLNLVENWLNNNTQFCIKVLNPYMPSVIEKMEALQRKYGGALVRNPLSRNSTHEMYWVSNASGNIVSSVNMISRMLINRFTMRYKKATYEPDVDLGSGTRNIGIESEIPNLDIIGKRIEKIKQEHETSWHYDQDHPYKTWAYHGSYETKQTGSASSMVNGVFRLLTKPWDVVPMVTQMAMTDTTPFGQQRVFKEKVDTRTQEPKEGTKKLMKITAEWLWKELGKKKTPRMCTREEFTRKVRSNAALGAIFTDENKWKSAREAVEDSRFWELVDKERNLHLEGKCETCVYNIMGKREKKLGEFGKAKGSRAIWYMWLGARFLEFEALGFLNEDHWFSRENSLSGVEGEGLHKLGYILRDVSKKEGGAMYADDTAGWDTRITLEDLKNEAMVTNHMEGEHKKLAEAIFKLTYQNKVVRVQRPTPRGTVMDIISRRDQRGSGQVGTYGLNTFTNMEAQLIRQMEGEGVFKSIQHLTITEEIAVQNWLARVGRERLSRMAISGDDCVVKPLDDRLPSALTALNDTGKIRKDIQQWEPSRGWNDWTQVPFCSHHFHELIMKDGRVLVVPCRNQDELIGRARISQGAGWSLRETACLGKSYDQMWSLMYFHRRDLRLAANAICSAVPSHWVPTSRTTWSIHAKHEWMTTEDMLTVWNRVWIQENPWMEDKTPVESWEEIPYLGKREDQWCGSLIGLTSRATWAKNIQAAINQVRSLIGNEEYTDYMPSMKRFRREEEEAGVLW
Caspase-9, sequence (P55211 1-315 limits assumed): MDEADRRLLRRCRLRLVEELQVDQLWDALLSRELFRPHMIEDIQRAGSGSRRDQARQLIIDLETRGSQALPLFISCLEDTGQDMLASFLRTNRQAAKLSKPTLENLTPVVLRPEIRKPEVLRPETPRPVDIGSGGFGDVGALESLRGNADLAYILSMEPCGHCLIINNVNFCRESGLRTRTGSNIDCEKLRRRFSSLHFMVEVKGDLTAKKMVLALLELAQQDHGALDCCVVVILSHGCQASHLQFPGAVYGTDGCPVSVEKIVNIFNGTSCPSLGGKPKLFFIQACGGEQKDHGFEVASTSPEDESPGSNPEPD
Caspase-9, sequence (P55211 331-416 limits assumed): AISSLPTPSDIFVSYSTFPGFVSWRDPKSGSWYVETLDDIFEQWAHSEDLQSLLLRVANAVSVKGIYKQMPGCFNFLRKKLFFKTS
1-phosphatidylinositol 4,5-bisphosphate phosphodiesterase gamma-1, sequence (P19174 whole entry): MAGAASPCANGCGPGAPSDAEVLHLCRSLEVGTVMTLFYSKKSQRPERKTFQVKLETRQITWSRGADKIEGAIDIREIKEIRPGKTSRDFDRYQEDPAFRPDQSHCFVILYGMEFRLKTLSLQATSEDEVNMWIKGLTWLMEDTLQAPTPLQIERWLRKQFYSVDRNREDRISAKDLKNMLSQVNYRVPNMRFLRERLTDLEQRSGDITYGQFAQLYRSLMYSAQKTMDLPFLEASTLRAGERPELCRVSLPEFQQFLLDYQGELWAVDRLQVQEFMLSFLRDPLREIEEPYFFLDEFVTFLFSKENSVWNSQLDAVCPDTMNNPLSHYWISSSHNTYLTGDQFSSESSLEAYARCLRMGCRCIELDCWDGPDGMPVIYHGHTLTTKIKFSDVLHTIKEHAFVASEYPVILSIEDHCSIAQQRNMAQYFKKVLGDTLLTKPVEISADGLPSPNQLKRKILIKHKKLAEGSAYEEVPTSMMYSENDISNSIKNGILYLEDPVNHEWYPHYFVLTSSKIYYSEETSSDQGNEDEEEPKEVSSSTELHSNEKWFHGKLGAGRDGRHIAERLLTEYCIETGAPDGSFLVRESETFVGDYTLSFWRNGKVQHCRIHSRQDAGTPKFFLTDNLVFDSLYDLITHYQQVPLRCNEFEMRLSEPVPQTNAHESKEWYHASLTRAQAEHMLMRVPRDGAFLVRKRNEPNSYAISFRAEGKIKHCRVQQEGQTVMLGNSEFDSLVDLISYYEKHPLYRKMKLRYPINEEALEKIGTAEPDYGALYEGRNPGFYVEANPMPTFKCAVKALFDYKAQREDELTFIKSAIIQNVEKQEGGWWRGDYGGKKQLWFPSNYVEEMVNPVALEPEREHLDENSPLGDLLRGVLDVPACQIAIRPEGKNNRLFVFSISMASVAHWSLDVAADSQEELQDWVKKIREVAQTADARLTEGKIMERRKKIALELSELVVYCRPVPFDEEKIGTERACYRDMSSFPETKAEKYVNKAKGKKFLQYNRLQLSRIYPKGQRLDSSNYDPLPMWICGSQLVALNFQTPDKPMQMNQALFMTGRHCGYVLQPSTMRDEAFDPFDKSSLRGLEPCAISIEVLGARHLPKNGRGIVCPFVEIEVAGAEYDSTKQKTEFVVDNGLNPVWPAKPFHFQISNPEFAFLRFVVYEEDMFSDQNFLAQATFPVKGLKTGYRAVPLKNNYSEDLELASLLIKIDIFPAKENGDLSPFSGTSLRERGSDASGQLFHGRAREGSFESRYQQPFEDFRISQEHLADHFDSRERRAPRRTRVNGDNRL
Intestinal-type alkaline phosphatase, sequence (P09923 whole entry): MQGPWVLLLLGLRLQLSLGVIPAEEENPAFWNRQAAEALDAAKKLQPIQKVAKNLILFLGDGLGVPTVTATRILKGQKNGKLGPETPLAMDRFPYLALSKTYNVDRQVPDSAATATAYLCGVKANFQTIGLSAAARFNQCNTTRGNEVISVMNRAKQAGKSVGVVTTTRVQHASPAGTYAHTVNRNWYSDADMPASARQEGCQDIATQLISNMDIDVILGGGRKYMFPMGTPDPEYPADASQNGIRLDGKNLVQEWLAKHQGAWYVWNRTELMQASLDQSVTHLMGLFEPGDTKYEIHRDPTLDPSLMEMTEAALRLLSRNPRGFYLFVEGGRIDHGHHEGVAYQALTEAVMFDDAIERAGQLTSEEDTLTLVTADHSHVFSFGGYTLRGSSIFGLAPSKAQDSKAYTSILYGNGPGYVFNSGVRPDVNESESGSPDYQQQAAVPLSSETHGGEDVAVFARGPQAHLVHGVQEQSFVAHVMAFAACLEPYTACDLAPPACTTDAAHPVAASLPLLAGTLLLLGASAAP
ORF 73, sequence (O40947 whole entry): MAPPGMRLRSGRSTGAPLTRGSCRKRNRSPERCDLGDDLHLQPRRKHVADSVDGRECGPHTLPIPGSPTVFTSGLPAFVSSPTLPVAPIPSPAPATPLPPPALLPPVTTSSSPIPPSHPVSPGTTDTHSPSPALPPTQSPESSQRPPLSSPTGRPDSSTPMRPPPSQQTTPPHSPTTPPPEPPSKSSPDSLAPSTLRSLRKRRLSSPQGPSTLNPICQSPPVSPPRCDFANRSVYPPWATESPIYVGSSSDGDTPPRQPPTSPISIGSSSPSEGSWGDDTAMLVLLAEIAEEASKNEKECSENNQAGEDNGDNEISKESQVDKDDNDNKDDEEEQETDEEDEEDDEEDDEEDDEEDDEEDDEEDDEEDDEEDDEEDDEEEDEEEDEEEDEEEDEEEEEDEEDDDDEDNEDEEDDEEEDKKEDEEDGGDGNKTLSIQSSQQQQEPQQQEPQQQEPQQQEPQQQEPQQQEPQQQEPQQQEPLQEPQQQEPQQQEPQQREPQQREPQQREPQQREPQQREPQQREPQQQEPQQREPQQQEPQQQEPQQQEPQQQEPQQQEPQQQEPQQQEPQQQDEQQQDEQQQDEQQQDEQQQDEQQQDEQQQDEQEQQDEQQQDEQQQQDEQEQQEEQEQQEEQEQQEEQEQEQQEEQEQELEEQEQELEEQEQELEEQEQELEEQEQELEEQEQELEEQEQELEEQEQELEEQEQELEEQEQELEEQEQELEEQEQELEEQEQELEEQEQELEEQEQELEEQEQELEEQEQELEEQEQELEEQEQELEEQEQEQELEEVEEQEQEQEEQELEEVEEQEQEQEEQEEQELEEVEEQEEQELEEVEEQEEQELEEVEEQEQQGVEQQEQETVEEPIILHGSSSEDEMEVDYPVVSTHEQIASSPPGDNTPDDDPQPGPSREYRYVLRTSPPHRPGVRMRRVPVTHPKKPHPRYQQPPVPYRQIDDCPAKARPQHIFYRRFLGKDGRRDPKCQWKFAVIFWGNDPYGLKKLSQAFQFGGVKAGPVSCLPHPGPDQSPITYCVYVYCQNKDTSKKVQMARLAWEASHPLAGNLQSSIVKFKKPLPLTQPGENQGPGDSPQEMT

Row | SMILES | IC50 [1] | EC50 (Streptococcus) | AC50 [2] | EC50 [3] | AC50 (INS1) | IC50 [4] | IC50 [5] | AC50 [6] | IC50 (Bcl-2-related protein A1) | IC50 [7] | AC50 (ORF 73) | IC50 (Troponin, cardiac muscle) | AC50 (Caspase-9) | AC50 (HeLa) | IC50 (Genome polyprotein) | IC50 [8] | AC50 (Caspase-8)
1 | CCCCCCCCCCOC(=O)C[n+]1c(COc2ccccc2OC)n(C)c2ccccc21 | 14.3 µM (active) | 12.7 µM (active) | 12.3 µM (active) | 6.69 µM (active) | 1.04 µM (active) | 54.4 µM (inactive) | 15.1 µM (active) | 4.02 µM (active) | 18.4 µM (active) |  |  |  |  |  |  |  | 
2 | O=c1ccc2c(-c3ccccc3S(=O)(=O)O)c3ccc(O)c(O)c3oc-2c1O [PYROGALLOL RED] |  |  |  |  |  |  |  |  |  | > 100 µM (inactive) | 0.526 µM (active) | 0.558 µM (active) | > 70 µM (inactive) | 8.94 µM (active) | 4.06 µM (active) | 14.2 µM (inactive) | > 70 µM (inactive)
